Reference: patent US4521422A, “Aryl and heteroaryl[7-(aryl and heteroaryl)pyrazolo[1,5-a]pyrimidin-3-yl]methanones” (American Cyanamid Company, priority 1984, dated 1985)

Assays:
[1] = test system: Clonic Seizures Caused by Pentylenetetrazole in Rats; test: Protection against clonic seizures caused by pentylenetetrazole in rats; type: in vivo; conditions: Rattus norvegicus; dose 25.0 mg/kg, oral or i.p.; pentylenetetrazole 23 mg/kg i.v. at 30 or 60 min; read-out: % of Rats Protected
Description: The anti-anxiety and anticonvulsant properties of the novel compounds of the present invention have been established in a test which indicates anxiolytic and antiepileptic activity by the measure of protection from convulsions resulting from the administration of pentylenetetrazole. Single or graded dose levels of the test compounds were administered orally or intraperitoneally in a 2% starch vehicle, containing 0.5% v/v polyethylene glycol and one drop of Polysorbate 80 to groups of at least 4 rats. At 30 or 60 minutes, the rats were treated intravenously with pentylenetetrazole at a dose of 23 mg/kg of body weight. This dose is estimated to cause clonic seizures in 99% of unprotected rats. It has been reported [R. T. Hill and D. H. Tedeschi, "Animal Testing and Screening Procedures in Evaluating Psychotropic Drugs" in "An Introduction to Psychopharmacology", Eds. R. R. Rech and K. E. Moore, Raven Press, New York, pp 237-288 (1971)] that there is a high degree of correlation between antagonism of pentylenetetrazole seizures in rats and anti-anxietyor anticonvulsant effects in higher warm-blooded animals.

[2] = test system: Brain-Specific Receptors of Rats; test: Inhibition of the binding of 3H-benzodiazepine to brain-specific receptors of rats; parameters: species or system rat (Wistar); conditions: 3H-diazepam 1.5 nM or 3H-flunitrazepam 1.0 nM; rat cortex P2 fraction; test concentration not given
[3] = test system: Nonconditioned Passive Avoidance in Rats; test: Nonconditioned passive avoidance (conflict) test in rats; type: in vivo, rat (Wistar); parameters: key: Active: considered active if the number of shocks received by the test group is significantly higher than the control group by the Mann-Witney U test; conditions: dose 12.5 mg/kg, oral or i.p.
Description: Another test which has been used to assess anti-anxiety effects is a nonconditioned passive avoidance procedure described by [J. R. Vogel, B. Beer and D. E. Clody, "A Simple and Reliable Conflict Procedure for Testing Anti-Anxiety Agents", Psychopharmacologia, 21, 1-7 (1971)]. A conflict situation is induced in rats by a modification of this method.
Groups of 6 naive, Wistar strain rats, weighing 200-240 g each were deprived of water for 48 hours and food for 24 hours. The test compounds were administered in single or graded, oral or intraperitoneal doses, suspended in a 2% starch vehicle containing 0.5% v/v polyethylene glycol and one drop of polysorbate 80. Control animals received the vehicle alone. At 30 to 60 minutes each rat was placed in an individual plexiglass chamber. Water was available ad libitum from a tap located in the rear of the chamber. A 0.7 milliampere DC shocking current was established between the stainless steel grid floor and the tap. After 20 licks of non-shocked drinking, a shock was delivered for 2 seconds and then further shocks were delivered on a ratio of one shock for 2 seconds for every 20 licks. This was continued for a total of 3 minutes. The number of shocks taken by each rat during the 3 minute interval was recorded and compared to a control group. […]

Compound | responders at 25 mg/kg [1] [%] | % Inhibition [2] [%] | Result (nonconditioned passive avoidance) [3]
Cc1cnc2c(C(=O)c3ccccc3)cnn2c1-c1ccccc1 [(6-methyl-7-phenylpyrazolo[1,5-a]pyrimidin-3-yl)phenyl-methanone] | 25 | 24 | –
CCC(=O)N(CC)c1cccc(-c2ccnc3c(C(=O)c4ccco4)cnn23)c1 [N-Ethyl-N-[3-[3-(2-furanylcarbonyl)pyrazolo[1,5-a]pyrimidin-7-yl]phenyl]propanamide] | – | – | Active
Cc1ccc(C(=O)c2cnn3c(-c4ccncc4)ccnc23)cc1 [(4-methylphenyl)[7-(4-pyridinyl)pyrazolo[1,5-a]pyrimidin-3-yl]methanone] | 50 | 19 | –
Cc1cc(-c2ccc(Cl)c(Cl)c2)n2ncc(C(=O)c3ccccc3)c2n1 [[7-(3,4-dichlorophenyl)-5-methylpyrazolo[1,5-a]pyrimidin-3-yl]phenyl-methanone] | 25 | 97 | –
O=C(c1ccc(F)cc1)c1cnn2c(-c3ccccc3F)ccnc12 [(4-fluorophenyl)[7-(2-fluorophenyl)pyrazolo[1,5-a]pyrimidin-3-yl]methanone] | 50 | 22 | –
COc1ccc(-c2cc(C)nc3c(C(=O)c4ccc(F)cc4)cnn23)cc1OC [[7-(3,4-dimethoxyphenyl)-5-methylpyrazolo[1,5-a]pyrimidin-3-yl](4-fluorophenyl)methanone] | 25 | 48 | –
O=C(c1ccccc1)c1cnn2c(-c3ccccn3)ccnc12 [phenyl[7-(2-pyridinyl)pyrazolo[1,5-a]pyrimidin-3-yl]methanone] | – | 30 | –
O=C(c1ccccc1)c1cnn2c(-c3cc(Cl)ccc3Cl)ccnc12 [[7-(2,5-dichlorophenyl)pyrazolo[1,5-a]pyrimidin-3-yl]phenyl-methanone] | – | 21 | –
O=C(c1cccc(C(F)(F)F)c1)c1cnn2c(-c3ccccc3)ccnc12 [(7-phenylpyrazolo[1,5-a]pyrimidin-3-yl)[3-(trifluoromethyl)phenyl]methanone] | – | 19 | –
Cc1cccc(C(=O)c2cnn3c(-c4cccc(C(F)(F)F)c4)ccnc23)c1 [(3-methylphenyl)[7-[3-(trifluoromethyl)phenyl]pyrazolo[1,5-a]pyrimidin-3-yl]methanone] | 25 | 67 | –
Cc1cc(-c2cccnc2)n2ncc(C(=O)c3ccccc3)c2n1 [[5-Methyl-7-(3-pyridinyl)pyrazolo[1,5-a]pyrimidin-3-yl]phenyl-methanone] | – | 15 | –
O=C(c1ccccc1)c1cnn2c(-c3cc(Cl)cc(Cl)c3)ccnc12 [[7-(3,5-dichlorophenyl)pyrazolo[1,5-a]pyrimidin-3-yl]phenyl-methanone] | 25 | 20 | –
Cc1cc(-c2ccncc2)n2ncc(C(=O)c3ccccc3)c2n1 [[5-Methyl-7-(4-pyridinyl)pyrazolo[1,5-a]pyrimidin-3-yl]phenyl-methanone] | – | 93 | –
O=C(c1ccco1)c1cnn2c(-c3ccccc3F)ccnc12 [[7-(2-fluorophenyl)pyrazolo[1,5-a]pyrimidin-3-yl]-2-furanyl-methanone] | – | 34 | –
O=C(c1ccc(Cl)cc1)c1cnn2c(-c3ccc(F)cc3)ccnc12 [(4-chlorophenyl)[7-(4-fluorophenyl)pyrazolo[1,5-a]pyrimidin-3-yl]methanone] | – | 16 | –
Cc1cccc(C(=O)c2cnn3c(-c4cccc(C)c4)ccnc23)c1 [(3-methylphenyl)[7-(3-methylphenyl)pyrazolo[1,5-a]pyrimidin-3-yl]methanone] | 25 | 75 | –
O=C(c1ccc(F)cc1)c1cnn2c(-c3ccccn3)ccnc12 [(4-fluorophenyl)[7-(2-pyridinyl)pyrazolo[1,5-a]pyrimidin-3-yl]methanone] | 50 | 17 | –
O=C(c1ccc(Cl)cc1)c1cnn2c(-c3cccnc3)ccnc12 [(4-chlorophenyl)[7-(3-pyridinyl)pyrazolo[1,5-a]pyrimidin-3-yl]methanone] | – | 87 | –

Compound | responders at 25 mg/kg [1] [%] | % Inhibition [2] [%] | Result (nonconditioned passive avoidance) [3]
O=C(c1ccccc1)c1cnn2c(-c3cccc(Cl)c3)ccnc12 [[7-(3-chlorophenyl)pyrazolo[1,5-a]pyrimidin-3-yl]phenyl-methanone] | – | 95 | –
O=C(c1cccs1)c1cnn2c(-c3cccnc3)ccnc12 [[7-(3-pyridinyl)pyrazolo[1,5-a]pyrimidin-3-yl]-2-thienyl-methanone] | 75 | 82 | –
Cc1ccc(C(=O)c2cnn3c(-c4ccccn4)ccnc23)cc1 [(4-methylphenyl)[7-(2-pyridinyl)pyrazolo[1,5-a]pyrimidin-3-yl]methanone] | – | 13 | –
O=C(c1ccccc1)c1cnn2c(-c3cc(C(F)(F)F)ccc3Cl)ccnc12 [[7-[2-chloro-5-(trifluoromethyl)phenyl]pyrazolo[1,5-a]pyrimidin-3-yl]phenyl-methanone] | – | 86 | –
COc1cc(-c2ccnc3c(C(=O)c4ccccc4)cnn23)cc(OC)c1OC [phenyl[7-(3,4,5-trimethoxyphenyl)pyrazolo[1,5-a]pyrimidin-3-yl]methanone] | – | 24 | –
O=C(c1cccc(F)c1)c1cnn2c(-c3cccc(C(F)(F)F)c3)ccnc12 [(3-fluorophenyl)[7-[3-(trifluoromethyl)phenyl]pyrazolo[1,5-a]pyrimidin-3-yl]methanone] | – | 96 | –
O=C(c1cccc(C(F)(F)F)c1)c1cnn2c(-c3cccc(C(F)(F)F)c3)ccnc12 [[3-(trifluoromethyl)phenyl][7-[3-(trifluoromethyl)phenyl]pyrazolo[1,5-a]pyrimidin-3-yl]methanone] | – | 56 | –
O=C(c1ccccc1)c1cnn2c(-c3ccccc3)ccnc12 [Phenyl(7-phenylpyrazolo[1,5-a]pyrimidin-3-yl)methanone] | – | 55 | –
O=C(c1ccccn1)c1cnn2c(-c3cccs3)ccnc12 [2-pyridinyl[7-(2-thienyl)pyrazolo[1,5-a]pyrimidin-3-yl]methanone] | – | 24 | –
COc1ccc(C(=O)c2cnn3c(-c4cccc(C(F)(F)F)c4)ccnc23)cc1OC [(3,4-dimethoxyphenyl)[7-[3-(trifluoromethyl)phenyl]pyrazolo[1,5-a]pyrimidin-3-yl]methanone] | 50 | 94 | –
O=C(c1ccccc1)c1cnn2c(-c3cccc(F)c3)ccnc12 [[7-(3-fluorophenyl)pyrazolo[1,5-a]pyrimidin-3-yl]phenyl-methanone] | – | 88 | –
Cc1cc(-c2cc[n+]([O-])cc2)n2ncc(C(=O)c3ccccc3)c2n1 [[5-Methyl-7-(4-pyridinyl)pyrazolo[1,5-a]pyrimidin-3-yl]phenyl-methanone, pyridine-1-oxide] | 25 | 52 | –
O=C(c1ccco1)c1cnn2c(-c3ccccc3)ccnc12 [2-Furanyl(7-phenylpyrazolo[1,5-a]pyrimidin-3-yl)methanone] | – | 81 | –
O=C(c1ccccc1)c1cnn2c(-c3cccs3)ccnc12 [phenyl[7-(2-thienyl)pyrazolo[1,5-a]pyrimidin-3-yl]methanone] | – | 96 | –
O=C(c1ccc(F)cc1)c1cnn2c(-c3ccccc3)ccnc12 [(4-fluorophenyl)(7-phenylpyrazolo[1,5-a]pyrimidin-3-yl)methanone] | – | 42 | –
Cc1nn2c(-c3cccnc3)ccnc2c1C(=O)c1ccccc1 [[2-methyl-7-(3-pyridinyl)pyrazolo[1,5-a]pyrimidin-3-yl]phenyl-methanone] | 50 | 52 | –
O=C(c1cccc(F)c1)c1cnn2c(-c3ccc(F)cc3)ccnc12 [(3-fluorophenyl)[7-(4-fluorophenyl)pyrazolo[1,5-a]pyrimidin-3-yl]methanone] | – | 52 | –
